Measurements as given in patent US4528189A, “Urotensin peptides” (The Salk Institute For Biological Studies, priority 1983, dated 1985).
Read-outs that look alike come from different tables or passages of the source.

Legend:
[1] = system: ACTH and β-END-LI secretion; experiment: secretion of ACTH and β-END-LI, general procedure (Examples V, VI); details: general procedure of Example III as printed
Experimental: (§1) The urotensin peptides from Examples II and III are examined for effects on the secretion of ACTH and β-endorphin in vitro and also examined in vivo. […] UI activity of the peptides was measured by the isolated rat hind limb assay, Lederis, K. et al. "Effects and Assay of Urotensin I on the Perfused Hind Limb of the Rat", Gen. Comp. Endocrinol., 24:10-16, 1974. In vivo hypotensive activity of extracted peptides was measured in anaesthetized rats, Lederis, K. and Medakovic, M. "Pharmacological Observations on the Hypotensive Action of Extracts of Teleost Fish Urophyses (Urotensin I) in the Rat", Br. J. Pharmacol. 51:315-324, 1974, and in anaesthetized dogs, MacCannell and Lederis, "Dilatation of the Mesenteric Vascular Bed of the Dog Produced by a Peptide, Urotensin I", J. Pharm. Exp. Ther. 203:38-46, 1977.
(§2) The peptide having the formula: Ac-[…]NH2 is synthesized.

blood pressure [2] = experiment: mammalian vasodilatory-hypotensive activity (mesenteric blood flow, systemic blood pressure), species not stated; assay type: in vivo
Experimental: as §1, §2
The peptide having the formula: H-Pro-Pro-Ile-Ser-Ile-Asp-Leu-Thr-Phe-His-Leu-Leu-Arg-Asn-Met-Ile-Glu-Met- Ala-Arg-Ile-Glu-Asn-Glu-Arg-NH2 is synthesized.

isolated rat hind limb = isolated rat hind limb assay
Experimental: (§3) UI activity in the fractions was measured by the isolated rat hind limb assay, Lederis, K. et al. "Effects and Assay of Urotensin I on the Perfused Hind Limb of the Rat." Gen Comp Endocrinol. 24:10-16, 1974. In vivo hypotensive activity of extracted peptides or those obtained by enzymatic cleavage was measured in anaesthetized rats, Lederis, K. et al. "Pharmacological Observations on the Hypotensive Action of Extracts of Teleost Fish Urophyses (Urotensin I) in the Rat", Br. J. Pharmac. 51:315-324, 1974.
as §1, with “1977. […]” for “1977.”

[3] = comparison of extracted and synthetic sucker peptides (activity relative to extracted peptide); details: synthetic versus extracted peptide
Experimental: (§4) In the pentobarbital-anaesthetized dog, the threshold dose of UI for mesenteric vasodilatation, when given close arterially into the cephalic mesenteric A, is between 0.001 and 0.01 μg for both sucker UI (1-41) and for the 4-41 fragment of sucker UI. Doses of 0.1-0.5 μg of both peptides produce a 50-150% increase in mesenteric flow; accompanying changes in blood pressure are very modest (about 10% decrease). […] Comp. Endocrinol. 45:446-452, 1981. Comparison of the two extracted and the two synthetic sucker peptides indicate that synthetic UI(1-41) have 111±16% activity and synthetic UI (4-41) have 123±14% activity, relative to the activity of the respective extracted sucker UI peptides.

blood pressure [4] = experiment: in vivo hypotensive activity in anaesthetized rats; details: rat; vascular dilatation appears less selective
Experimental: as §3, §1

[5] = system: isolated mesenteric artery strips; experiment: isolated mesenteric artery strips of the rat
Experimental: as §4

teleost fish pituitaries = experiment: secretion of ACTH by teleost fish pituitaries
Experimental: as §1

[6] = system: cultured rat pituitary cells; experiment: secretion of ACTH and β-endorphin by cultured rat pituitary cells; assay type: cell-based; details: for potency to stimulate the secretion of ACTH and β-endorphin: in vitro; for potency to stimulate ACTH and β-endorphin secretion compared with amunine (CRF): the two peptides substantially indistinguishable from each other
Experimental: as §1

mesenteric vascular bed [7] = experiment: blood pressure and mesenteric vasodilatation in the anaesthetized dog; assay type: in vivo; details: for potency of synthetic peptide versus extracted and purified peptide: anaesthetized dog in vivo; for dilatation of other (non-mesenteric) vascular beds / depression of the blood pressure: dog; for depression of the blood pressure: appears due solely to dilatation of the mesenteric vascular bed; for accompanying change in blood pressure (decrease) / increase in mesenteric flow: pentobarbital-anaesthetized dog, doses of 0.1-0.5 μg
Experimental: as §1, §4

mesenteric vascular bed [8] = experiment: blood pressure and vascular dilatation in the monkey; assay type: in vivo; details: for depression of the blood pressure: appears due solely to dilatation of the mesenteric vascular bed
Experimental: as §1

[9] = system: ACTH and β-END-LI secretion; experiment: ACTH and β-END-LI secretion in vivo in several rat preparations
Experimental: as §1

[10] = system: ACTH and β-endorphin secretion; details: reported; cited from earlier work
blood pressure [11] = details: reported, Erspamer et al.; cited from earlier work

| Compound | vasodilatory-hypotensive activity (mesenteric blood flow, systemic blood pressure) (blood pressure [2]) | potency of synthetic peptide versus extracted and purified peptide (isolated rat hind limb) | activity relative to the activity of the respective extracted sucker UI peptide [3] | fall in blood pressure (blood pressure [4]) | potency of synthetic peptide versus extracted and purified peptide [5] | potency in stimulating the secretion of ACTH relative to amunine (teleost fish pituitaries) | potency to stimulate the secretion of ACTH and β-endorphin [6] | potency to stimulate ACTH and β-endorphin secretion compared with amunine (CRF) [6] | potency of synthetic peptide versus extracted and purified peptide (mesenteric vascular bed [7]) | dilatation of other (non-mesenteric) vascular beds (mesenteric vascular bed [7]) | depression of the blood pressure (mesenteric vascular bed [7]) | accompanying change in blood pressure (decrease) (mesenteric vascular bed [7]) | increase in mesenteric flow (mesenteric vascular bed [7]) | dilatation of other (non-mesenteric) vascular beds (mesenteric vascular bed [8]) | depression of the blood pressure (mesenteric vascular bed [8]) | stimulation of ACTH and β-END-LI secretion in vivo [9] | other results |
| --- | --- | --- | --- | --- | --- | --- | --- | --- | --- | --- | --- | --- | --- | --- | --- | --- | --- |
| Ac-APPISIDLTFHLLRNMIEMARIENEREQAGLNRKYLDEV-NH2 [V] | very significant increasing of mesenteric blood flow and lowering of systemic blood pressure | – | – | – | – | – | – | – | – | – | – | – | – | – | – | – | stimulation of the secretion of ACTH and β-END-LI [1]: stimulates the secretion of ACTH and β-END-LI |
| H-NDDPPISIDLTFHLLRNMIEMARIENEREQAGLNRKYLDEV-NH2 [urotensin I] | substantially lower blood presssure for an extended time period | equipotent with the extracted and purified peptides | 111±16% | more marked fall in blood pressure | equipotent with the extracted and purified peptides | several times more potent than amunine | high potency | comparable to amunine (CRF) | equipotent with the extracted and purified peptides | neither peptide dilates other vascular beds | modest but sustained depression of the blood pressure | about 10% | 50-150% | neither peptide dilates other vascular beds | modest but sustained depression of the blood pressure | stimulate ACTH and β-END-LI secretion in vivo | potency to stimulate the secretion of ACTH and β-endorphin ([6]; listed as synthetic UI): stimulate ACTH and β-endorphin activies in vitro; stimulation of ACTH and β-END-LI secretion in vivo ([9]; listed as synthetic UI): stimulate ACTH and β-endorphin activies in vitro and in vivo |
| H-PPISIDLTFHLLRNMIEMARIENER-NH2 [VI, H-Pro-Pro-Ile-Ser-Ile-Asp-Leu-Thr-Phe-His-Leu-Leu-Arg-Asn-Met-Ile-Glu-Met- Ala-Arg-Ile-Glu-Asn-Glu-Arg-NH2] | significant mammalian vasodilatory-hypotensive activity | – | – | – | – | – | – | – | – | – | – | – | – | – | – | – | – |
| CC[C@H](C)[C@H](NC(=O)[C@@H](NC(=O)[C@H](CC(=O)O)NC(=O)[C@H](CC(C)C)NC(=O)[C@H](CC(C)C)NC(=O)[C@H](CC(C)C)NC(=O)[C@H](CCCNC(=N)N)NC(=O)[C@H](CC(N)=O)NC(=O)[C@H](CC(N)=O)NC(=O)[C@H](C)NC(=O)[C@H](C)NC(=O)[C@H](CCC(N)=O)NC(=O)[C@H](CCC(N)=O)NC(=O)[C@H](CCCCN)NC(=O)[C@H](CCC(=O)O)NC(=O)[C@H](CCCCN)NC(=O)[C@H](CCC(=O)O)NC(=O)[C@H](CCC(N)=O)NC(=O)[C@H](CCCCN)NC(=O)[C@H](CCC(=O)O)NC(=O)[C@@H](NC(=O)[C@H](CCC(=O)O)NC(=O)[C@@H](NC(=O)[C@H](CCSC)NC(=O)[C@H](CCCCN)NC(=O)[C@H](CCCNC(=N)N)NC(=O)[C@H](CC(C)C)NC(=O)[C@H](CC(C)C)NC(=O)[C@H](CCC(=O)O)NC(=O)[C@H](CC(C)C)NC(=O)[C@H](CO)NC(=O)[C@H](CC(C)C)NC(=O)[C@H](CC(=O)O)NC(=O)[C@@H](NC(=O)[C@H](CO)NC(=O)[C@@H](NC(=O)[C@@H]1CCCN1C(=O)[C@@H]1CCCN1C(=O)CNC(=O)[C@@H]1CCC(=O)N1)[C@@H](C)CC)[C@@H](C)CC)[C@@H](C)CC)[C@@H](C)CC)[C@@H](C)O)C(N)=O [Sauvagine] | – | – | – | – | – | – | – | – | – | – | – | – | – | – | – | – | stimulating the secretion of ACTH and β-endorphin [10]: stimulating the secretion of ACTH and β-endorphin; lowering blood pressure in mammals (blood pressure [11]): biological activity in lowering blood pressure in mammals |
| H-PPISIDLTFHLLRNMIEMARIENEREQAGLNRKYLDEV-NH2 [urotensin I (4-41)] | substantially lower blood presssure for an extended time period | equipotent with the extracted and purified peptides | 123±14% | more marked fall in blood pressure | equipotent with the extracted and purified peptides | several times more potent than amunine | high potency | comparable to amunine (CRF) | equipotent with the extracted and purified peptides | neither peptide dilates other vascular beds | modest but sustained depression of the blood pressure | about 10% | 50-150% | neither peptide dilates other vascular beds | modest but sustained depression of the blood pressure | stimulate ACTH and β-END-LI secretion in vivo | potency to stimulate the secretion of ACTH and β-endorphin ([6]; listed as UI 4-41): stimulate ACTH and β-endorphin activies in vitro; stimulation of ACTH and β-END-LI secretion in vivo ([9]; listed as UI 4-41): stimulate ACTH and β-endorphin activies in vitro and in vivo |
